# The source made the active and inactive calls. No cut-off for these calls is given here.
# Tests used:
# J774.A1 [1] = assay: Anti-inflammatory activity in LPS-induced mouse J774.A1 cells assessed as inhibition of IL-6 production by ELISA; assay type: functional, cell-based
# Mus musculus [2] = assay: Antiinflammatory activity in cecal ligation and puncture induced sepsis C57BL/6 mouse model assessed as reduction in tissue destruction of lung at 20 mg/kg,po administrated with compound for 6 hrs followed by CLP induction and measured after 12 hrs by H and E staining based analysis; assay type: functional, organism-based; details: time 18.0 hrs
# [3] = target: Myeloid differentiation primary response protein MyD88 (Homo sapiens, UniProt Q99836); assay: Inhibition of FLAG tagged and HA tagged MYD88 (unknown origin) expressed in LPS induced HEK293T cells at 20 uM incubated for 1 hr by coimmunoprecipitation analysis; assay type: cell-based
# Myeloid differentiation primary response protein MyD88, sequence (Q99836 whole entry): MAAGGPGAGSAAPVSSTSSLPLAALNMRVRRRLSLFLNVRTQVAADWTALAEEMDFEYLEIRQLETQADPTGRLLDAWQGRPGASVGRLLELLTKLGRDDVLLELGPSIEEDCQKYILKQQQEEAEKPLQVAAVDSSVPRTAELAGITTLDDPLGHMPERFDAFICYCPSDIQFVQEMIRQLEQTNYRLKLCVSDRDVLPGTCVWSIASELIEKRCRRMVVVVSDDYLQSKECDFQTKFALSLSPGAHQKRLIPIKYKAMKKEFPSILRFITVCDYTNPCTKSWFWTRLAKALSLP
# Mus musculus [4] = assay: Antiinflammatory activity in cecal ligation and puncture induced sepsis C57BL/6 mouse model assessed as reduction in inflammatory infiltration in lung at 20 mg/kg,po administrated with compound for 6 hrs followed by CLP induction and measured after 12 hrs by H and E staining based analysis; assay type: functional, organism-based; details: time 18.0 hrs
# [5] = Cmax in Sprague-Dawley rat at 20 mg/kg,po administration measured upto 24 hrs by LC-MS/MS analysis; assay type: ADME, organism-based; details: in vivo
# [6] = Half life in Sprague-Dawley rat at 1 mg/kg,iv administration measured upto 24 hrs by LC-MS/MS analysis; assay type: ADME, organism-based; details: in vivo
# Mus musculus [7] = assay: Antiinflammatory activity in cecal ligation and puncture induced sepsis C57BL/6 mouse model assessed as reduction in interstitial edema in lung at 20 mg/kg,po administrated with compound for 6 hrs followed by CLP induction and measured after 12 hrs by H and E staining based analysis; assay type: functional, organism-based; details: time 18.0 hrs
# [8] = Stability of compound in simulated intestinal fluid measured upto 12 hrs; assay type: physicochemical; details: simulated gi fluid
# Mus musculus [9] = assay: Antiinflammatory activity against LPS induced acute lung injury C57BL/6 mouse model assessed as reduction in total cell count in BALF at 20 mg/kg,po administrated with compound for 30 mins followed by LPS treatment and measured after 6 hrs; assay type: functional, organism-based; details: time 6.5 hrs
# J774.A1 [10] = assay: Anti-inflammatory activity in LPS-induced mouse J774.A1 cells assessed as inhibition of TNF-alpha production by ELISA; assay type: functional, cell-based
# [11] = AUC (0 to infinity) in Sprague-Dawley rat at 1 mg/kg,iv administration measured upto 24 hrs by LC-MS/MS analysis; assay type: ADME, organism-based; details: in vivo
# J774.A1 [12] = assay: Inhibition of MAPK signalling pathway in LPS stimulated mouse J774.A1 cells assessed as downregulation of IRAK4 phosphorylation by Western blotting analysis; assay type: cell-based
# Mus musculus [13] = assay: Antiinflammatory activity against LPS induced acute lung injury C57BL/6 mouse model assessed as reduction in total protein concentration in BALF at 20 mg/kg,po administrated with compound for 30 mins followed by LPS treatment and measured after 6 hrs; assay type: functional, organism-based; details: time 6.5 hrs
# [14] = AUC (0 to t) in Sprague-Dawley rat at 1 mg/kg,iv administration measured upto 24 hrs by LC-MS/MS analysis; assay type: ADME, organism-based; details: in vivo
# [15] = Half life in Sprague-Dawley rat at 20 mg/kg,po administration measured upto 24 hrs by LC-MS/MS analysis; assay type: ADME, organism-based; details: in vivo
# [16] = target: TLR4-MyD88 (Mus musculus) (UniProt Q9QUK6+P22366); assay: Inhibition of MYD88/TLR4 protein-protein interaction in LPS-induced mouse J774.A1 cells at 20 uM incubated for 2 hrs by coimmunoprecipitation analysis; assay type: cell-based
# TLR4-MyD88 (Mus musculus), sequence (P22366 whole entry, looked up): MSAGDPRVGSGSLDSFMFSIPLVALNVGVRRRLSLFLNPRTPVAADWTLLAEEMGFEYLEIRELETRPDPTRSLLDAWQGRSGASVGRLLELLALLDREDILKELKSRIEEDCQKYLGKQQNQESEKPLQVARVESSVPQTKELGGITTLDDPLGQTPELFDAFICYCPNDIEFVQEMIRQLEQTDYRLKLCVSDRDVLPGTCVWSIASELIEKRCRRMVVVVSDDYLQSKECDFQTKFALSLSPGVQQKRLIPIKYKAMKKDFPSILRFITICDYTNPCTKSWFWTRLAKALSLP
# TLR4-MyD88 (Mus musculus), sequence (Q9QUK6 whole entry, looked up): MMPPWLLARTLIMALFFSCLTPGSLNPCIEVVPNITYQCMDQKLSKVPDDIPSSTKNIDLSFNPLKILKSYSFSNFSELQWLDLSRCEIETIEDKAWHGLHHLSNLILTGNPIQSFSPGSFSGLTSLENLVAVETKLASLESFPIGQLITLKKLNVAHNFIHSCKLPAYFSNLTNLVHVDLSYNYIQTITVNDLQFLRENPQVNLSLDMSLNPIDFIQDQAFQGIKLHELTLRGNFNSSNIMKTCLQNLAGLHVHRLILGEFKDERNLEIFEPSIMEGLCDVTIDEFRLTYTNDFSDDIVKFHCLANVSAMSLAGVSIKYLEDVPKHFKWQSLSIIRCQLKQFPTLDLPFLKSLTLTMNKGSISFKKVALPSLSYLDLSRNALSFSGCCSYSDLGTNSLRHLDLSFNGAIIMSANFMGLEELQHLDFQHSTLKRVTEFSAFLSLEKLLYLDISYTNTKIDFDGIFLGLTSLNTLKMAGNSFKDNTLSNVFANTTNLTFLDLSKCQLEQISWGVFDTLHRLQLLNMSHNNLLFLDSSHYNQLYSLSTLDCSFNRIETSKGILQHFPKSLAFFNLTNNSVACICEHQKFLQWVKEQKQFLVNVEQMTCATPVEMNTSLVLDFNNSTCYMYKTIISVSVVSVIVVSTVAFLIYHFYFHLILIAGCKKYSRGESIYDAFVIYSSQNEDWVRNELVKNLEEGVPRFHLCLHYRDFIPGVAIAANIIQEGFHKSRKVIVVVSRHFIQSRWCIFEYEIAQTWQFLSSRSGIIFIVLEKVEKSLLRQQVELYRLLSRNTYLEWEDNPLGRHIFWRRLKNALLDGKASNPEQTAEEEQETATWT
# [17] = Acute toxicity in C57BL/6 mouse assessed as weight loss at 500 mg/kg,po administration measured after 3 days; assay type: organism-based; details: in vivo, 72 h, time 3 day
# Mus musculus [18] = assay: Antiinflammatory activity in cecal ligation and puncture induced sepsis C57BL/6 mouse model assessed as reduction in IL-6 level in BALF at 20 mg/kg,po administrated with compound for 6 hrs followed by CLP induction and measured after 12 hrs by ELISA; assay type: functional, organism-based; details: time 18.0 hrs
# J774.A1 [19] = assay: Inhibition of NF-kappaB signalling pathway in LPS-induced mouse J774.A1 cells assessed as downregulation of p65 phosphorylation by Western blotting analysis; assay type: cell-based
# Mus musculus [20] = assay: Antiinflammatory activity against LPS induced acute lung injury C57BL/6 mouse model assessed as reduction in TNF-alpha level in serum at 20 mg/kg,po administrated with compound for 30 mins followed by LPS treatment and measured after 6 hrs by ELISA; assay type: functional, organism-based; details: time 6.5 hrs
# Mus musculus [21] = assay: Antiinflammatory activity in cecal ligation and puncture induced sepsis C57BL/6 mouse model assessed as reduction in pulmonary congestion in lung at 20 mg/kg,po administrated with compound for 6 hrs followed by CLP induction and measured after 12 hrs by H and E staining based analysis; assay type: functional, organism-based; details: time 18.0 hrs
# Mus musculus [22] = assay: Antiinflammatory activity against LPS induced acute lung injury C57BL/6 mouse model assessed as reduction in TNF-alpha level in BALF at 20 mg/kg,po administrated with compound for 30 mins followed by LPS treatment and measured after 6 hrs by ELISA; assay type: functional, organism-based; details: time 6.5 hrs
# [23] = target: Toll-like receptor 4/Ly96 (Mus musculus) (UniProt Q9QUK6+Q9JHF9); assay: Inhibition of MD2/TLR4 protein-protein interaction in LPS-induced mouse J774.A1 cells at 20 uM incubated for 2 hrs by coimmunoprecipitation analysis; assay type: cell-based
structure (smiles),measurement,setting,value
O[C@H](COc1ccc(Br)cc1)CN1CCN(Cc2cc3ccccc3[nH]2)CC1,IC50,J774.A1 [1],240 nM
same,Activity,Mus musculus [2],Active
same,inhibition,[3],Active
same,Activity,Mus musculus [4],Active
same,Cmax,[5],320 ng/mL
same,half-life,[6],1.39 h
same,Activity,Mus musculus [7],Active
same,Stability,[8],Stable
same,Activity,Mus musculus [9],Active
same,IC50,J774.A1 [10],3280 nM
same,AUC(0-inf),[11],698 ng·h/mL
same,inhibition,J774.A1 [12],Active
same,Activity,Mus musculus [13],Active
same,AUC(0-t) at 24 h,[14],691 ng·h/mL
same,half-life,[15],4.44 h
same,inhibition,[16],Active
same,Activity,[17],Toxic
same,Activity,Mus musculus [18],Active
same,inhibition,J774.A1 [19],Active
same,Activity,Mus musculus [20],Active
same,Activity,Mus musculus [21],Active
same,Activity,Mus musculus [22],Active
same,inhibition,[23],inactive
